According to patent US20260234208A1, “METHOD FOR PRODUCING A KERATIN POWDER FROM FEATHERS OF ANIMAL ORIGIN, COLLOIDAL SOLUTION AND KERATIN POWDER FOR TOPICAL APPLICATION CONTAINING KERATIN PARTICLES, AND USE OF THE COLLOIDAL SOLUTION AND THE KERATIN POWDER” (RIGI THERAPEUTICS AG, priority 2023, published 2026):

Assay: Water release in climate chamber
Assay type: physicochemical
Conditions: room temperature, humidity 50%
Procedure: When urea was added, up to a ratio of 5% keratin to 95% urea, the maximum was reached increasingly later, in the maximum case only after 15 days. In this case, the water absorption capacity was 197%. (FIG. 13). The water release was determined at room temperature and a humidity of 50%. […] For the mixtures of keratin and urea in the ratios 25:75 and 10:[…], a water content of 25% was still observed even after 4 days (FIG. 14).

Time to complete water release: 4 days
Water release within the first 24 hours: around 170%
SMILES: NC(N)=O [urea]
